Measurements reported in US11919906B2, “Crystal form of ACP-196 and method of treatment thereof” (Hangzhou SoliPharma Co., Ltd., priority 2016, dated 2024).

Tests used:
[1] = Isothermal sorption (dynamic vapor sorption), hygroscopicity; format: physicochemical; conditions: between 30 to 80% RH
Description: Dynamic vapor sorption data and isothermal sorption data were collected on TA Instruments Q5000 TGA. Method: A sample of 1 to 10 mg was placed in a platinum pan; the weight change of the sample during the change in relative humidity from 0% to 80% to 0% was measured.

[2] = Thermogravimetric analysis (TGA), weight loss / residual solvents; format: physicochemical; conditions: before 150° C.
Description: Thermogravimetric analysis data were collected on TA instruments Q500 TGA. Method: A sample of 5 to 15 mg was placed in a platinum pan, using High Resolution™, the sample was heated from room temperature to 350° C. at a heating rate of 10° C./min under the protection of dry nitrogen purge at 40 mL/min.

Compound	weight change (isothermal sorption plot) [1]	weight loss (TGA) [2]
CC#CC(=O)N1CCC[C@H]1c1nc(-c2ccc(C(=O)Nc3ccccn3)cc2)c2c(N)nccn12 [amorphous ACP-196]	5.5%	11.1%
CC#CC(=O)N1CCC[C@H]1c1nc(-c2ccc(C(=O)Nc3ccccn3)cc2)c2c(N)nccn12 [ACP-196 Form 1]	0.8%	
